Drawing on patent US10683287B2, “Heterocyclic derivatives and their use in the treatment of neurological disorders” (Novartis AG, priority 2011, dated 2020), this text covers IC50 for four compounds.

The assay concerns Cellular Release of Amyloid Peptide 1-40. The experiment in a line: Test 4: Inhibition of Cellular Release of Amyloid Peptide 1-40. The assay is classed as cell-based, Chinese hamster. The settings on record: Cricetulus griseus, 24 h; read-out: Amyloid-β1-40 release IC50. Here is the method: Chinese hamster ovary cells are transfected with the human gene for amyloid precursor protein. The cells are plated at a density of 8000 cells/well into 96-well microtiter plates and cultivated for 24 hours in DMEM cell culture medium containing 10% FCS. The test compound is added to the cells at various concentrations, and the cells are cultivated for 24 hours in the presence of the test compound.
A word on the IC50: it is the concentration that inhibits the measured activity by half. Take `C[C@@]1(c2cccc(NC(=O)c3ncc(C#N)cc3N)n2)CO[C@@](C)(C(F)(F)F)C(N)=N1` [Example 19, 3-Amino-5-cyano-pyridine-2-carboxylic acid [6-((3R,6R)-5-amino-3,6-dimethyl-6-trifluoromethyl-3,6-dihydro-2H-[1,4]oxazin-3-yl)-pyridin-2-yl]-amide]: the IC50 was found to be 48 nM.

With `C[C@@]1(c2nc(NC(=O)c3nc4ccn(CC(F)F)c4nc3N)ccc2F)CO[C@@](C)(C(F)(F)F)C(N)=N1` [Example 45, 3-Amino-5-(2,2-difluoro-ethyl)-5H-pyrrolo[2,3-b]pyrazine-2-carboxylic acid [6-((3R,6R)-5-amino-3,6-dimethyl-6-trifluoromethyl-3,6-dihydro-2H-[1,4]oxazin-3-yl)-5-fluoro-pyridin-2-yl]-amide], the IC50 is 3600 nM.

Take `[2H]c1nc(C(=O)Nc2cccc(C3(CF)COCC(N)=N3)n2)c(C([2H])([2H])[2H])c([2H])c1Cl` (stereo not shown) [Example 6, 4,6-Dideutero-5-chloro-3-trideuteromethyl-pyridine-2-carboxylic acid [6-(5-amino-3-fluoromethyl-3,6-dihydro-2H-[1,4]oxazin-3-yl)-pyridin-2-yl]-amide]: the IC50 stood at 63 nM.

Turning to `[2H]c1nc(C(=O)Nc2cccc([C@]3(C)CO[C@@](C)(C(F)(F)F)C(N)=N3)n2)c(C([2H])([2H])[2H])c([2H])c1Cl` [Example 21, 5-Chloro-4,6-dideuterio-3-trideuteriomethyl-pyridine-2-carboxylic acid [6-((3R,6R)-5-amino-3,6-dimethyl-6-trifluoromethyl-3,6-dihydro-2H-[1,4]oxazin-3-yl)-pyridin-2-yl]-amide], the half-inhibitory concentration (IC50) worked out at 110 nM.
